Source: US20110264139A1, “SUTURES AND FIBROSING AGENTS” (Angiotech Pharmaceuticals, Inc., priority 2006, published 2011)

Assays:
Experiment in all cases: MIC assay, microtitre broth dilution
Type in all cases: cell-based
[1] = test system: K. pneumoniae ATCC13883 C238; details: K. pneumoniae ATCC13883 C238 wt, Gram −; Mueller Hinton broth, 37° C., 24 h
Description: (§1) MIC assays were conducted essentially as described by Amsterdam, D. 1996, “Susceptibility testing of antimicrobials in liquid media,” p. 52-111. In Loman, V., ed. Antibiotics in Laboratory Medicine, 4th ed. Williams and Wilkins, Baltimore, Md. Briefly, a variety of compounds were tested for antibacterial activity against isolates of P. aeruginosa, K. pneumoniae , E. coli, S. epidermidus, and S. aureus in the MIC (minimum inhibitory concentration) assay under aerobic conditions using 96 well polystyrene microtitre plates (Falcon 1177), and Mueller Hinton broth at 37° C. incubated for 24 h. (MHB was used for most testing except C721 (S. pyogenes), which used Todd Hewitt broth, and Haemophilus influenzae, which used Haemophilus test medium (HTM)). Tests were conducted in triplicate.

E. Coli UB1005 C498 = E. Coli UB1005 C498 wt, Gram −; Mueller Hinton broth, 37° C., 24 h
Description: as §1

[2] = test system: P. aeruginosa PAE/K799 H187; details: P. aeruginosa PAE/K799 H187 wt, Gram −; Mueller Hinton broth, 37° C., 24 h
Description: as §1

S. epidermidis C621 = S. epidermidis C621 wt, Gram +; Mueller Hinton broth, 37° C., 24 h
Description: as §1

S. aureus ATCC25923 C622 = S. aureus ATCC25923 C622 wt, Gram +; Mueller Hinton broth, 37° C., 24 h
Description: as §1

S. pyogenes C721 = S. pyogenes C721 wt, Gram +; Todd Hewitt broth, 37° C., 24 h
Description: as §1

Compound | Minimum inhibitory concentration [1] | Minimum inhibitory concentration (E. Coli UB1005 C498) | Minimum inhibitory concentration [2] | Minimum inhibitory concentration (S. epidermidis C621) | Minimum inhibitory concentration (S. aureus ATCC25923 C622) | Minimum inhibitory concentration (S. pyogenes C721)
Sc1ncnc2nc[nH]c12 [6-mercaptopurine] | N | N | N | N | N | N
Sc1ncc2[nH]cnc2n1 [2-mercaptopurine] | N | N | N | N | N | N
CN(Cc1cnc2nc(N)nc(N)c2n1)c1ccc(C(=O)N[C@@H](CCC(=O)O)C(=O)O)cc1 [methotrexate] | 10^−6 molar | N | N | N | 10^−5 molar | 10^−6 molar
O=c1[nH]cc(F)c(=O)[nH]1 [5-fluorouracil] | 10^−6 molar | 10^−6 molar | 10^−5 molar | 10^−7 molar | 10^−7 molar | 10^−4 molar
Nc1ccn([C@@H]2O[C@H](CO)[C@@H](O)[C@@H]2O)c(=O)n1 [Cytarabine] | N | N | N | N | N | N
COc1cc([C@@H]2c3cc4c(cc3[C@@H](O[C@@H]3O[C@@H]5CO[C@@H](C)O[C@H]5[C@H](O)[C@H]3O)[C@H]3COC(=O)[C@H]23)OCO4)cc(OC)c1O [etoposide] | 10^−5 molar | N | N | 10^−6 molar | 10^−5 molar | 10^−5 molar
CC[C@@]1(O)C(=O)OCc2c1cc1n(c2=O)Cc2cc3ccccc3nc2-1 [camptothecin] | N | N | N | 10^−4 molar | N | N
NC(=O)NO [hydroxyurea] | N | N | 10^−4 molar | N | N | 10^−4 molar
cisplatin | N | N | 10^−4 molar | N | N | N
O=C1c2c(O)ccc(O)c2C(=O)c2c(NCCNCCO)ccc(NCCNCCO)c21 [mitoxantrone] | 10^−6 molar | 10^−5 molar | 10^−5 molar | 10^−5 molar | 10^−5 molar | 10^−6 molar
Nc1ncnc2c1ccn2[C@@H]1O[C@H](CO)[C@@H](O)[C@H]1O [tubercidin] | N | N | N | N | N | N
COc1cccc2c1C(=O)c1c(O)c3c(c(O)c1C2=O)C[C@@](O)(C(=O)CO)C[C@@H]3O[C@H]1C[C@H](N)[C@H](O)[C@H](C)O1 [doxorubicin] | 10^−6 molar | 10^−4 molar | 10^−5 molar | 10^−6 molar | 10^−5 molar | 10^−7 molar
